Laboratory results from patent US20120035247A1, “RNA Interference Mediated Inhibition of Signal Transducer and Activator of Transcription 6 (STAT6) Gene Expression Using Short Interfering Nucleic Acid (siNA)” (Merck Sharp & Dohme Corp., priority 2009, published 2012).
[invAb] = inverted abasic unit; m = 2'-O-methyl; r = 2'-OH (RNA); f = 2'-fluoro

Tested on: STAT6 protein
Assay: STAT6 Western Blot after 6-well plate transfection of A549 cells
Format: cell-based, human
Conditions: STAT6 protein band density, 72 h post-transfection, average ±S.D., n = 3
Description: A549 cells were plated in 6-well plates at final counts of 70,000 cells/well in 2 ml of complete growth media. Transfection was performed using 2.5 uL of RNAiMax per well. Final concentration of siNAs was 30 nM (screen) and 30, 0.3, and 0.003 nM (dose response study). Protein lysates were harvested 24, 48, and 72 hours post-transfection (screen) and 72 hours post-transfection (dose response study). Protein lysates were prepared using Cell Extraction Buffer (Invitrogen, cat# FNN0011) according to manufacturer's instructions. Protein concentration was measured using a Bradford Quick Start Kit (Bio-Rad, cat#500-0205).
The protein source for the Western Blot experiments were from transfection of A549 cells in a 6 well plate, as described above.
Protein samples were diluted 1:1 in 2× Laemmli buffer with 5% 13-mercapto-ethanol and incubated at 95° C. for 5 minutes. 40-50 ug of protein was loaded in each lane of 10% Tris-HCl gel. One lane was designated for MagicMark Protein Standard (Invitrogen # LC5602). The gel was run at 100V for approximately 2 hours. Protein was transferred to a PVDF membrane at 100V for 60 minutes. Once the transfer was finished, the membrane was blocked in 1% Casein in PBS (BioRad Cat#161-0783) for 1 hour on a plate rocker at room temperature followed by the overnight incubation at 4° C. with mouse monoclonal anti-STAT6 primary antibody (BD Biosciences, cat#611291) diluted 1:500 in 1% Casein. On the next day, the blot was washed 4×5 minutes in PBST solution and incubated for 30 minutes at room temperature with goat anti-mouse secondary antibody (Pierce Biotechnology, cat#3 31430) diluted 1:20,000 in 1% Casein. Then, the blot was washed 4×5 minutes with PBST and incubated for 1 minute with ECL Western Blotting Substrate (Pierce Biotechnology, Cat#32106). The bands were visualized on the Bio-Rad VersaDoc Imager.
The protein bands were quantified by computing their density which is defined by the ratio between the total intensity of all pixels and the area of the rectangle drawn around each band (intensity/mm^2). The density was calculated by the BioRad software.
The level of protein was quantified using the Bio-Rad VersaDoc Imager according to the protocols of that piece of equipment. A pixel count was performed in each lane using an area of identical size. Each sample was then compared to the appropriate control treated sample and converted to a percent of protein remaining compared to control.
The effects of lead siNAs on STATE protein level were compared to the effects of the universal control using a two tail Student's T-test to obtain a P value. P<0.05 was considered significant.
The siNAs and control were tested were tested at doses of 30 nM, […]. Blots were then probed with a-STAT6 and α-tubulin antibodies. All samples were harvested 72 hours post-transfection. The ratios of the treatments were then compared to the ratio of the control group using an t-test assuming unequal variances.

29990-DC: STAT6 siNA duplex; sense SEQ ID NO: 44, antisense SEQ ID NO: 45; target GUGAAAGCCUGGUGGACAU, site 954 (sense GUGAAAGCCUGGUGGACAUTT; antisense AUGUCCACCAGGCUUUCACUU; sense: DNA at AGT, 2'-fluoro at CU, [invAb] at 5' end, 3' end, backbone not given here; antisense: sugars from the 5' end rrrfffmffmmmfffffmfmm, backbone not given here) [STAT6 siNA duplex; target GUGAAAGCCUGGUGGACAU, site 954]
Density (Intensity/mm^2), 3 pM, 72 h: 50078.4 ± 5978.2 Intensity/mm^2
Density (Intensity/mm^2), 300 pM, 72 h: 6192.2 ± 714.5 Intensity/mm^2
Density (Intensity/mm^2), 30 nM, 72 h: 1134.6 ± 362.7 Intensity/mm^2

29997-DC: STAT6 siNA duplex; sense SEQ ID NO: 58, antisense SEQ ID NO: 59; target CUACCAUGGUGCCUUCUUA, site 2262 (sense CUACCAUGGUGCCUUCUUATT; antisense UAAGAAGGCACCAUGGUAGUU; sense: DNA at AGT, 2'-fluoro at CU, [invAb] at 5' end, 3' end, backbone not given here; antisense: sugars from the 5' end rrrmmmmmfmffmfmmfmmmm, backbone not given here) [STAT6 siNA duplex; target CUACCAUGGUGCCUUCUUA, site 2262]
Density (Intensity/mm^2), 3 pM, 72 h: 49839.8 ± 2352.8 Intensity/mm^2
Density (Intensity/mm^2), 300 pM, 72 h: 5732.4 ± 1189.0 Intensity/mm^2
Density (Intensity/mm^2), 30 nM, 72 h: 3203.8 ± 1309.6 Intensity/mm^2

30008-DC: STAT6 siNA duplex; sense SEQ ID NO: 80, antisense SEQ ID NO: 81; target CUGCUCUGCUCAGAUGUGA, site 2549 (sense CUGCUCUGCUCAGAUGUGATT; antisense UCACAUCUGAGCAGAGCAGUU; sense: DNA at AGT, 2'-fluoro at CU, [invAb] at 5' end, 3' end, backbone not given here; antisense: sugars from the 5' end rrrfmfffmmmfmmmmfmmmm, backbone not given here) [STAT6 siNA duplex; target CUGCUCUGCUCAGAUGUGA, site 2549]
Density (Intensity/mm^2), 3 pM, 72 h: 58808.1 ± 5023.9 Intensity/mm^2
Density (Intensity/mm^2), 300 pM, 72 h: 8356.8 ± 2186.6 Intensity/mm^2
Density (Intensity/mm^2), 30 nM, 72 h: 4254 ± 1579.4 Intensity/mm^2
